SMILES strings stand for the structures. Counter-ions that a name gives are not always drawn.

In test [1] the test system is endogenous adrenergic receptors in HEK 293T cells. The test is described as follows: cAMP accumulation, untransfected cells. The format is cell-based, human. The conditions noted are these: untransfected HEK 293T cells; Isoproterenol 10 µM. Here is the method:
Resuspended cells were added 1:1 with a 2× concentration of ligand (10 µl final) into an opaque 384-well flat bottom plate (Greiner Bio-One). […]. for FSK inhibition assays with β-ARs, 100 µM metoprolol was used. For dose–response curves, a saturating concentration of forskolin (10 µM) was included as a control to measure cAMP stimulation independent of the transfected receptor. For experiments comparing multiple receptors measuring non-cognate or secondary Gs signalling (Fig. 4e, Extended Data Fig. 8i–k), 500 µM 3-isobutyl-1-methylxanthine (IBMX) was used to inhibit phosphodiesterase activity. For all other experiments, no IBMX was used to minimize cAMP accumulation from endogenous receptors (Extended Data Fig. 6a). For experiments in Fig. 2g and Extended Data Fig. 6b,e, plates were incubated at 37 °C for 10 min to stimulate cAMP production. For all other experiments, plates were incubated at room temperature for 10 min. […] Reactions were quenched and processed for the cAMP-Glo Assay (Promega) following the manufacturer’s instructions. Luminescence was measured on a Tecan Spark plate reader (500 ms integration, one measurement per well). […]

The target of test [2] is T1, PTH1R (Homo sapiens, UniProt Q03431).
T1 construct: expressed in transfected cells; host or cells: HEK 293T
T1 sequence (Q03431 27-593): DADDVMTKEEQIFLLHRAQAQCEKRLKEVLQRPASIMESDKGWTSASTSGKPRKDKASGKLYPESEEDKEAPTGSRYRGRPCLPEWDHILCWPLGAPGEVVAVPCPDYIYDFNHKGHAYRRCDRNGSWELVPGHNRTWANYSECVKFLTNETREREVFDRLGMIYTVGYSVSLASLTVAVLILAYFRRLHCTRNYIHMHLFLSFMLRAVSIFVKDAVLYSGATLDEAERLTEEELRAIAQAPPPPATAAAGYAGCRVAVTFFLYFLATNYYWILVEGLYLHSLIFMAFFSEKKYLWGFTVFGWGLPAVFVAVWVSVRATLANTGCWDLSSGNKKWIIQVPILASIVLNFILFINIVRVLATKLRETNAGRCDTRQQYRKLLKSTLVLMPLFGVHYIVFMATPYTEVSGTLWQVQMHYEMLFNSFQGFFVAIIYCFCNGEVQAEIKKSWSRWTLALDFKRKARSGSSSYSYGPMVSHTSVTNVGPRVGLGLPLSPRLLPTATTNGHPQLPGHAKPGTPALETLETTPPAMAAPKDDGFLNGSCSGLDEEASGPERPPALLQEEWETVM
Briefly: cAMP accumulation, PTH1R. The format is cell-based. The conditions noted are these: PTH1R Wild-Type. A general note: Cyclic AMP is a second messenger, typically raised through Gs and lowered through Gi signalling.
Method: (§1) One millilitre of medium was removed from each well containing transfected cells. The remaining volume was used to gently shear and resuspend the cells by pipetting. The cell mixture was centrifuged (3 min, 300g) and media was removed using a vacuum manifold. […] The cells were washed once by repeating this procedure.
(§2) For all other second messenger assays, expression level and cell density of each condition was estimated through fluorescence. Fluorescence spectra for mCerulean (Horiba Fluoromax 4, excitation 430 nm, emission scan 450–600 nm, bandpass 4 nm) and mCitrine (Horiba Fluoromax 4, excitation 490 nm, emission scan 500–600 nm, bandpass 4 nm) were acquired for each condition. Cells were resuspended at 350,000 ± 30,000 fluorescence counts at a wavelength representing optical density of the sample (excitation 430 nm/emission 450 nm), corresponding with 2 × 10^6 ± 5 × 10^5 cells per m^l. This was confirmed by counting the cells on a haemocytometer (Countess II).
(§3) Resuspended cells were added 1:1 with a 2× concentration of ligand (10 µl final) into an opaque 384-well flat bottom plate (Greiner Bio-One). […] For dose–response curves, a saturating concentration of forskolin (10 µM) was included as a control to measure cAMP stimulation independent of the transfected receptor. […] For all other experiments, plates were incubated at room temperature for 10 min. […] Reactions were quenched and processed for the cAMP-Glo Assay (Promega) following the manufacturer’s instructions. Luminescence was measured on a Tecan Spark plate reader (500 ms integration, one measurement per well).

Test [3] relates to PTH1R. The test is described as follows: cAMP accumulation, PTH1R. The conditions noted are these: PTH1R B2AR ICL3. In kind it is cell-based, human.
Method: as §1, §2, §3
[4] abbreviates: [Isoproterenol] log(M) -8.30103.
[5] abbreviates: [Isoproterenol] log(M) -9.30103.

Consider `CC(C)NCC(O)c1ccc(O)c(O)c1` (stereo not drawn) [Isoproterenol, isoproterenol (+)-bitartrate salt], for which the “cAMP generated from endogenous receptors” value in test [1] is “only detected in the presence of 500 µM IBMX”. Moreover, the “cAMP (Isoproterenol/Forskolin Maximum), Average” value came to 0.55 at PTH1R [2] ([Isoproterenol] log(M) -5); 0.57 at PTH1R [2] ([Isoproterenol] log(M) -6); 0.59 at PTH1R [2] ([Isoproterenol] log(M) -7); 0.43 at PTH1R [2] ([Isoproterenol] log(M) -8); 0.44 at PTH1R [2] (setting [4]); 0.10 at PTH1R [2] ([Isoproterenol] log(M) -9). For the same molecule, the “cAMP (Isoproterenol/Forskolin Maximum), Average” value at PTH1R [2] (setting [5]) is 0.00476; on PTH1R [2] ([Isoproterenol] log(M) -10), -0.0216; on PTH1R [2] ([Isoproterenol] log(M) -11) it was -0.00704; at PTH1R [2] ([Isoproterenol] log(M) -12), -0.08; in the test with PTH1R [3] ([Isoproterenol] log(M) -5) it was 0.73; with PTH1R [3] ([Isoproterenol] log(M) -6), 0.71. In addition, the “cAMP (Isoproterenol/Forskolin Maximum), Average” value with PTH1R [3] ([Isoproterenol] log(M) -7) is on record as 0.69; with PTH1R [3] ([Isoproterenol] log(M) -8) it was 0.49; in the test with PTH1R [3] (setting [4]), 0.39; in the test with PTH1R [3] ([Isoproterenol] log(M) -9), 0.0653; with PTH1R [3] (setting [5]), 0.0238; with PTH1R [3] ([Isoproterenol] log(M) -10), -0.0474. The “cAMP (Isoproterenol/Forskolin Maximum), Average” value with PTH1R [3] ([Isoproterenol] log(M) -11) was 0.02; in the test on PTH1R [3] ([Isoproterenol] log(M) -12), -0.0165.
